Assay results taken from US20220000804A1, “INTRANASAL NANO INDUCER FOR PREVENTING AND TREATING NEURODEGENERATIVE DISEASES AND METHOD THEREOF” (Nasal-Phyto (SZ) Pharmaceutical Technology Co., Ltd., priority 2019, published 2022).

Key:
[1] = Dissolution/dispersion in water and organic solvents, Tyndall effect; type: physicochemical
Neuroma blast cells N2a = assay: Cytotoxicity test (MTT method); type: cell-based; settings: 24 hours after drug addition
Protocol: A group of Neuroma blast cells N2a that are cultured in a blank medium without hydrophobic drugs (i.e., the curcumin analog M1) defines a negative control group, and a rate of cell viability of the Neuroma blast cells N2a in the negative control group is calculated as 100%. FIG. 8 illustrates the results.

COc1ccccc1/C=C/C(=O)/C=C/c1ccccc1OC [curcumin analog M1]
solubility in tetrahydrofuran ([1]; tetrahydrofuran): soluble in tetrahydrofuran | dissolution / dispersion in water ([1]; water): difficultly dissolved in water | cytotoxicity (cell survival rate) (Neuroma blast cells N2a): dose-dependent cytotoxicity
